Data set [1] has as its system iNOS. Briefly: iNOS activity in cell lines stably transfected with Kalirin-7, iNOS induced by iNOS plasmid, LPS or LPS plus Aβ1-42. It counts as cell-based. To be noted: for iNOS activity: AtT20, SH-SY5Y, Neuro2A and C6 cell lines, iNOS raised by iNOS plasmid, LPS, or LPS plus Aβ1-42, Canavanine or L-NAME 10 mM; for Aβ1-42-augmented iNOS activity: LPS plus Aβ1-42 treated cell lines. The procedure: Assays for iNOS and NOS—The hippocampal and cerebellar specimens and the transfected cells were homogenized in 50 mM Tris HCl (pH 7.4), 1 mM EDTA, 0.1 mM tetrahydrobiopterin, 2 mM dithiothreitol, 10% (v/v) glycerol, aprotinin (25 μg/ml), leupeptin (25 μg/ml), 100 μM PMSF, 10 μM FMN, and 10 μM FAD. The homogenates were centrifuged at 2,000×g for 15 min, and the supernatants were assayed for iNOS. iNOS was also assayed in the presence of 10 mM Canavanine (Sigma) or L-NAME (Sigma). The collective activity of NOS (including eNOS, nNOS and iNOS) was determined in an identical fashion to iNOS activity, but in the presence of 1.25 mM Ca^2+.
Preparation of Aβ1-42 peptide—One mM of A β1-42 (Biosource) was prepared in a capped vial at 37° C. for 5 days, and stored at −20° C. The frozen stock solution was diluted and used at the final concentration of 10 μM.
Cell culture and transfection—AtT-20 cells (ATCC# CCL-89), SH-SY5Y cells (ATCC# CRL-2266), C6 cells (ATCC# CCL-107) and Neuro-2A cells (ATCC # CCL-131) were cultured according to the supplier's instructions. Each cell line was grown in a 25 cm^2 flask, stably transfected with pcDNA4 vector carrying Kalirin-7 or pcDNA3 carrying iNOS, using SuperFect transfection reagents (Qiagen) following the manufacture's instructions. Stable cell lines were selected using 0.5 mg/ml of G-418 for pcDNA3 or 0.12 μg/ml of zeocin for pcDNA4.
To induce the iNOS activity, cell lines were transfected with iNOS in pcDNA3 or stimulated with 3 μg/ml of lipopolysaccharides (LPS) for 12-16 h (27) or 10 μM A β1-42 peptide for 18 h. Two different approaches of double transfection with Kalirin-7 and iNOS were used to determine the effects of Kalirin-7 on iNOS. The cell line stably expressing Kalirin-7 was transiently transfected with iNOS, and conversely, the cell line stably expressing iNOS was transiently transfected with increasing amounts of pcDNA4 carrying Kalirin-7 or Kalirin domains.

Data set [2] concerns the target T1, iNOS (Homo sapiens, UniProt P35228).
T1 construct: expressed in transfected cells
Description: iNOS activity in AtT-20 cells stably expressing iNOS, transiently transfected with Kalirin-7, Kalirin domain or section plasmids. It counts as cell-based, mouse. The procedure: Assays for iNOS and NOS-The hippocampal and cerebellar specimens and the transfected cells were homogenized in 50 mM Tris HCl (pH 7.4), 1 mM EDTA, 0.1 mM tetrahydrobiopterin, 2 mM dithiothreitol, 10% (v/v) glycerol, aprotinin (25 μg/ml), leupeptin (25 μg/ml), 100 μM PMSF, 10 μM FMN, and 10 μM FAD. […] The collective activity of NOS (including eNOS, nNOS and iNOS) was determined in an identical fashion to iNOS activity, but in the presence of 1.25 mM Ca^2+. Cell culture and transfection-AtT-20 cells (ATCC# CCL-89), SH-SY5Y cells (ATCC# CRL-2266), C6 cells (ATCC# CCL-107) and Neuro-2A cells (ATCC # CCL-131) were cultured according to the supplier's instructions. Each cell line was grown in a 25 cm^2 flask, stably transfected with pcDNA4 vector carrying […]-7 or pcDNA3 carrying iNOS, using SuperFect transfection reagents (Qiagen) following the manufacture's instructions. Stable cell lines were selected using 0.5 mg/ml of G-418 for pcDNA3 or 0.12 μg/ml of zeocin for pcDNA4. To induce the iNOS activity, cell lines were transfected with iNOS in pcDNA3 or stimulated with 3 μg/ml of lipopolysaccharides (LPS) for 12-16 h (27) or 10 μM A β1-42 peptide for 18 h. Two different approaches of double transfection with […]-7 and iNOS were used to determine the effects of […]-7 on iNOS. The cell line stably expressing […]-7 was transiently transfected with iNOS, and conversely, the cell line stably expressing iNOS was transiently transfected with increasing amounts of pcDNA4 carrying […]-7 or […] domains.

For data set [3], the target named is T1, iNOS. Description: Co-immunoprecipitation of iNOS with Kalirin-7 by anti-Kalirin in co-transfected AtT-20 cells. The data set is classed as binding. The conditions noted are these: increasing amounts of Kalirin-7 plasmid. The procedure: Immunoblot and immunoprecipitation—Proteins were extracted. Brain samples were directly solubilized in 10 volume of lysis buffer (50 mM Tris HCl at pH 7.5, 120 mM NaCl, 5 mM EDTA, 1% Nonidet P-40 (0.3 mg/ml), 8 μg/ml aprotinin, 2 μg/ml pepstatin A, 2 μg/ml leupeptin, 1 mM Na3VO4, 50 mM NaF and 0.2% of SDS) using Omni 2000 homogenizer (Omni International Inc). The solubilized samples were centrifuged at 15,000×g for 10 min, the supernatants were saved, and protein concentration was measured by the Bradford method. Cultured cells were suspended in another lysis buffer consisting of 100 mM Tris HCl (pH7.5), 150 mM NaCl, 2 mM EDTA, 0.5% of Triton X-100, 1 mM PMSF, 4 μg/ml aprotinin, 1 μg/ml pepstatin A, 1 μg/ml leupeptin, 1 mM Na3VO4, 50 mM NaF and 0.2% of SDS), and processed.
An equal protein-amount of solubilized supernatants was resolved by SDS-PAGE and blotted onto polyvinylidene difluoride membrane. The membranes were incubated for 1 h in blocking solution containing 3% bovine serum albumin. The membranes were incubated for 1 h with primary antibodies diluted 1:500 in Tris-buffered saline containing 0.1% Tween 20. After washing, membranes were incubated for 1 h in 1:10,000 dilution of secondary antibodies coupled to horseradish peroxidase. […] Blots were scanned, and the band intensity was digitized and quantified using Molecular Dynamics Image Quant 5.1. […]

For data set [4], the system named is AtT-20 cells stably expressing iNOS. Briefly: Renilla luciferase assay as transfection reference for toxic effect of plasmid DNA. It counts as cell-based, mouse. The conditions noted are these: increasing plasmid amounts co-transfected with constant pRL-TK vector. The procedure: To test the putative toxic effect of high concentrations of plasmid DNA, up to 2.5 μg, the Renilla luciferase assay (Promega) was used as a transfection reference. The AtT-20 cells stably expressing iNOS were transiently transfected with a constant amount of the pRL-TK vector (Promega) carrying Renilla luciferase and increasing amounts of the Kalirin plasmid. The co-transfected cells were assayed for iNOS and luciferase following the manufacturer's instructions.

6 molecules from patent US7867978B2, “Methods and compositions for treating neurological disorders” (The University of Kentucky Research Foundation, priority 2007, dated 2011) can be followed below.

Entries after “also recorded” stand apart in the source; their conditions may differ. Ends that are not written are not given here.

T1 sequence (P35228 whole entry, species assumed): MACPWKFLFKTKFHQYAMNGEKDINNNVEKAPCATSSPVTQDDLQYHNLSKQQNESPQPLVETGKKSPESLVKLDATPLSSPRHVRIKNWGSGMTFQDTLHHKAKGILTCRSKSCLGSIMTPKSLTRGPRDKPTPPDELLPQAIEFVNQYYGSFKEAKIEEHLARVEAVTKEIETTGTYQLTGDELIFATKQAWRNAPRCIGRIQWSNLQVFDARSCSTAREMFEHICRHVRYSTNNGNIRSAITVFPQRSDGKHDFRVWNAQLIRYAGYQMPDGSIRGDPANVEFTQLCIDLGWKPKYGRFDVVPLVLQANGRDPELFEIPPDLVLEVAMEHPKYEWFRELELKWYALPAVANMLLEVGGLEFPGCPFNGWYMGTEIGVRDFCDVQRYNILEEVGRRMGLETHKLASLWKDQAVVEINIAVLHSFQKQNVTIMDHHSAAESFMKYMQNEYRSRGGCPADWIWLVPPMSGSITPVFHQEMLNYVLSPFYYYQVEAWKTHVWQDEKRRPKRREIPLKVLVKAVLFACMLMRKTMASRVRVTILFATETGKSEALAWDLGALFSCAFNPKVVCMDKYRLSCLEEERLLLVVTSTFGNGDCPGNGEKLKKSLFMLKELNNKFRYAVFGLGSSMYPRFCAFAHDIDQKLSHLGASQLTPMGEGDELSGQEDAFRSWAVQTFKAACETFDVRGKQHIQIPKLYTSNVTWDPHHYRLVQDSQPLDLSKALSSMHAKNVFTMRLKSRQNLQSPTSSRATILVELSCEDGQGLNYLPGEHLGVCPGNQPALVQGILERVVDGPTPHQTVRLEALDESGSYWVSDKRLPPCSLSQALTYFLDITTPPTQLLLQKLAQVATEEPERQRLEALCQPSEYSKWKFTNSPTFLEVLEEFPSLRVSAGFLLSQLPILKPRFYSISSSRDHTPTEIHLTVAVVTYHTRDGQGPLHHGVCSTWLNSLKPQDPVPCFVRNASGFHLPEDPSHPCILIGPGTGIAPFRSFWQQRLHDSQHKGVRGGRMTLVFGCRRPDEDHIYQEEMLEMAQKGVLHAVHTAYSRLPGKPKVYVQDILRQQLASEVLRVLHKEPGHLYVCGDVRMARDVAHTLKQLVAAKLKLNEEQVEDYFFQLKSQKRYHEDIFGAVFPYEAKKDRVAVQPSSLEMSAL

For `N=C(N)NOCC[C@H](N)C(=O)O` [Canavanine], in the data set with iNOS [1], the iNOS activity result is recorded as “suppressed to basal levels” and the “Aβ1-42-augmented iNOS activity” value is “attenuated”.

On to `COC(=O)[C@@H](N)CCCNC(=N)N[N+](=O)[O-]` [L-NAME], for which, in the data set on iNOS [1], the iNOS activity entry is listed as “suppressed to basal levels” and the “Aβ1-42-augmented iNOS activity” value is given as “attenuated”.

Turning to “Aβ1-42: amyloidogenic peptide Aβ1-42 (Biosource), used at 10 μM”, the “iNOS activity induced by LPS treatment” value in the data set on iNOS [1] (LPS plus 10 μM Aβ1-42, stable cell lines) was “augments iNOS activity”.

Turning to “Kalirin-7: cytoplasmic protein of >1,660 amino acids (SEQ ID NO:2), expressed from pcDNA4 carrying the Kalirin-7 cDNA”, in the data set on iNOS [1], the iNOS activity entry was “suppressed to basal levels” and the “Aβ1-42-augmented iNOS activity” value was “attenuated”. The iNOS activity entry in the data set with iNOS [2] (increasing amounts of pcDNA4 Kalirin-7 vector) was “decreased”. The “iNOS co-immunoprecipitated by anti-Kalirin” value with iNOS [3] was “increasing concentrations of iNOS were co-immunoprecipitated”. Also, the “synthesis and activity of Renilla luciferase (putative toxic effect of plasmid)” value in data set [4] is “did not impair”.

Consider “KAARHLEVRIQDFVRRVEQRKLLLDMSVSFHTH (also: Flag epitope tag; listed as Homo sapiens) [section # 8]”, for which the “suppression of iNOS versus plasmid concentration” value with iNOS [2] (increasing amounts of Kalirin section 8 plasmid) is on record as “dependent on the concentration”. Moreover, the iNOS suppression entry with iNOS [2] (transient transfection with pcDNA4 carrying individual 33 amino acid sections, compared with D2 and wild type Kalirin 7) is given as “suppressed most effectively”.

With “D2: Kalirin domain consisting of the 354 amino acid V506-Q860 sequence of SEQ ID NO:2, expressed from pcDNA4”, in the data set with iNOS [2] (transient transfection with pcDNA4 carrying individual Kalirin-7 domains), the iNOS activity result is recorded as “attenuated; also recorded: most notably attenuated”.
